We go through 16 molecules from ChEMBL document CHEMBL2016558, “CB 1/2 dual agonists with 3-carbamoyl 2-pyridone derivatives as antipruritics: reduction of CNS side effects by introducing polar functional groups” (Bioorg Med Chem Lett, 2012).

The target in data set [1] is Cannabinoid receptor 1 (Homo sapiens, UniProt P21554). Kind of data set: Displacement of [3H]-CP55940 from recombinant human CB1 receptor by scatchard plot analysis. On the technique in general: In a radioligand displacement assay an active substance lowers the binding of a labelled ligand.
Data set [2] deals with Cannabinoid receptor 2 (Homo sapiens, UniProt P34972). As to the kind of experiment: Displacement of [3H]-CP55940 from recombinant human CB2 receptor by scatchard plot analysis.
In data set [3] the test system is Mus musculus. As to the kind of experiment: Toxicity in ICR mouse assessed as CB1-mediated spasm, rigor at 0.1 to 1 mg/kg, iv after 15 mins. In kind it is organism-based. More on the design: dose 0.1-1 mg/kg, route intravenous. Conditions: in vivo, 0.25 h.
In data set [4] the test system is Mus musculus. Kind of data set: Toxicity in ICR mouse assessed as CB1-induced catalepsy at 0.1 to 1 mg/kg, iv after 15 mins. It counts as organism-based. Details: dose 0.1-1 mg/kg, route intravenous. As to conditions: in vivo, 0.25 h.
Data set [5] has as its system Mus musculus. Kind of data set: Toxicity in ICR mouse assessed as CB1-mediated stretching the without moving at 0.1 to 1 mg/kg, iv after 15 mins. It counts as organism-based. More on the design: dose 0.1-1 mg/kg, route intravenous. Conditions: in vivo, 0.25 h.
Data set [6] has as its system Mus musculus. Kind of data set: Toxicity in ICR mouse assessed as CB1-mediated walking with lying on the belly at 0.1 to 1 mg/kg, iv after 15 mins. It counts as organism-based. More on the design: dose 0.1-1 mg/kg, route intravenous. As to conditions: in vivo, 0.25 h.
Data set [7] relates to Mus musculus. Kind of data set: Toxicity in ICR mouse assessed as CB1-mediated moving sluggishly at 0.1 to 1 mg/kg, iv after 15 mins. It counts as organism-based. More on the design: dose 0.1-1 mg/kg, route intravenous. Conditions: in vivo, 0.25 h.
A short description of data set [8]: Ratio of drug level in brain to plasma in rat. Conditions: read-out: BPR. In kind it is ADME.
Data set [9] deals with Mus musculus. As to the kind of experiment: Antipruritic activity in Crj:CD1 ICR mouse pruritic model assessed as inhibition of compound 48/80-induced scratching compound topically applied on the shaved back 15 mins prior challenge measured for 30 mins relative to control. It counts as functional.

Chain of Cannabinoid receptor 2 (P34972 whole entry): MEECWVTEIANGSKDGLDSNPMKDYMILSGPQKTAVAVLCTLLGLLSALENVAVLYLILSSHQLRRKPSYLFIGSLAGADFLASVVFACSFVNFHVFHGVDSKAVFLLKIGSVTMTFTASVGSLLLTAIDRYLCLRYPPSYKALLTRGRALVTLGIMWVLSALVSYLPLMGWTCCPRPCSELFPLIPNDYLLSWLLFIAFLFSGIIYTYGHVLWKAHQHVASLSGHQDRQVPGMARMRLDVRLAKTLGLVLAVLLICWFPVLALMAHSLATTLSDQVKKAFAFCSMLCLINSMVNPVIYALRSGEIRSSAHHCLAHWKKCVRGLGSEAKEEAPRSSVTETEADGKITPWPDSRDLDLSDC
Chain of Cannabinoid receptor 1 (P21554 whole entry): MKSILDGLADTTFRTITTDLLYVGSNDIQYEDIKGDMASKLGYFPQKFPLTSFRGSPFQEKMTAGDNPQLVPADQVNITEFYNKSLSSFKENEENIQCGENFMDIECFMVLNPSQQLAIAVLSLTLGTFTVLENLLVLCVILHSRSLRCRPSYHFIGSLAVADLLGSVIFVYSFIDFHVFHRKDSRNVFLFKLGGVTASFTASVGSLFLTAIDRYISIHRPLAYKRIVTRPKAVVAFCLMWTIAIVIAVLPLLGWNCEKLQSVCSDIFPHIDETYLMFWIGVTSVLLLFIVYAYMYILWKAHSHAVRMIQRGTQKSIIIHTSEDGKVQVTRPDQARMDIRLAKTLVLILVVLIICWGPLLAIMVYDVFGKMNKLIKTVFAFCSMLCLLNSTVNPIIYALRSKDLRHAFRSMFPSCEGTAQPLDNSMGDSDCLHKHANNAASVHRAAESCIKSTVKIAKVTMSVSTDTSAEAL

As for `CC(C)(NC(=O)c1cc2c(n(CC3CCCCC3)c1=O)CCCCCC2)C(=O)NCCCO`, the Ki (as a rule, the dissociation constant of the complex between target and ligand, obtained from inhibition or displacement) in data set [1] came to 6.3 nM; in [2], 1 nM. Also, the Activity entry in data set [3], in data set [4], in [5], in [6] and in [7] was “Toxic” throughout.

On to `CN(CCO)C(=O)C(C)(C)NC(=O)c1cc2c(n(CC3CCCCC3)c1=O)CCCCCC2`, for which the Ki in data set [2] was determined as 0.6 nM. Also, the Activity result in [3], in data set [4], in data set [5], in [6] and in [7] was “Toxic” in each case. For the same molecule, in data set [8], the Kp worked out at 0.28.

As for `CC(C)(NC(=O)c1cc2c(n(CC3CCCCC3)c1=O)CCCCCC2)C(=O)N1CCC(C(N)=O)CC1`, the Ki worked out at 4.9 nM in data set [1] and 3 nM in data set [2]. Moreover, the Activity result in data set [3], in data set [4], in data set [5], in [6] and in data set [7] was “Toxic” each time.

As to `CC(C)(NC(=O)c1cc2c(n(CC3CCCCC3)c1=O)CCCCCC2)C(=O)N1CCC(O)CC1`, the inhibition constant (Ki) worked out at 8 nM in data set [1] and 1.1 nM in data set [2]. In addition, the Activity result in data set [3], in data set [4], in data set [5], in data set [6] and in data set [7] was “Toxic” in each case.

`CC(C)(NC(=O)c1cc2c(n(CC3CCCCC3)c1=O)CCCCCC2)C(=O)NNS(C)(=O)=O`: the inhibition constant (Ki) was determined as 32 nM in data set [1] and 7.3 nM in [2]. Besides, the Activity entry in data set [3], in data set [4], in data set [5], in [6] and in data set [7] was “Non-toxic” each time. Besides, the Kp in [8] is 0.02. Further, the “inhibition (INH)” value in data set [9] was found to be 87%.

As to `CC(C)(NC(=O)c1cc2c(n(CC3CCCCC3)c1=O)CCCCCC2)C(=O)N1CCC(C(=O)O)CC1`, the Ki in data set [1] came out at 2970 nM; in data set [2], 377 nM.

With `COC(=O)C(C)(C)NC(=O)c1cc2c(n(CC3CCCCC3)c1=O)CCCCCC2`, the inhibition constant Ki in data set [1] was found to be 1.7 nM; in data set [2], 0.3 nM. Also, the Activity entry in [3], in [4], in [5], in data set [6] and in data set [7] was “Toxic” each time. Further, in [8], the Kp worked out at 3.35.

Consider `CC(C)(NC(=O)c1cc2c(n(CC3CCCCC3)c1=O)CCCCCC2)C(=O)N1CCC(NS(C)(=O)=O)CC1`, for which the Activity entry in data set [3], in data set [4], in data set [5], in data set [6] and in data set [7] was “Non-toxic” throughout.

`CC(C)(NC(=O)c1cc2c(n(CC3CCCCC3)c1=O)CCCCCC2)C(=O)NN`: the Ki in [1] stood at 30 nM; in data set [2], 2.8 nM. The Activity result in data set [3], in data set [4], in data set [5], in data set [6] and in [7] was “Toxic” throughout.

Take `CC(C)(NC(=O)c1cc2c(n(CC3CCCCC3)c1=O)CCCCCC2)C(=O)NCCCCCO`: the Ki in [1] was 5.8 nM; in data set [2], 1.2 nM. Besides, the Activity result in data set [3], in [4], in data set [5], in [6] and in data set [7] was “Toxic” in each case.

`CC(C)(NC(=O)c1cc2c(n(CC3CCCCC3)c1=O)CCCCCC2)C(=O)NCC(N)=O`: the Activity entry in data set [3], in [4], in [5], in data set [6] and in data set [7] was “Toxic” throughout.

As to `CC(C)(NC(=O)c1cc2c(n(CC3CCCCC3)c1=O)CCCCCC2)C(=O)NCC(=O)O`, the Ki is above 5000 nM in [1] and 2820 nM in data set [2].

Regarding `CC(C)(NC(=O)c1cc2c(n(CC3CCCCC3)c1=O)CCCCCC2)C(=O)N1CCC(C(=O)NS(C)(=O)=O)CC1`, the Ki was 218 nM in data set [1] and 128 nM in data set [2].

For the molecule `CN(C)CCNC(=O)C(C)(C)NC(=O)c1cc2c(n(CC3CCCCC3)c1=O)CCCCCC2`, the Ki in data set [1] was 242 nM; in [2] it was 81 nM.

For `CC(C)(NC(=O)c1cc2c(n(CC3CCCCC3)c1=O)CCCCCC2)C(=O)NCCOCCO`, the Ki in [1] was 3.4 nM; in data set [2], 0.6 nM. In addition, the Activity result in data set [3], in data set [4], in data set [5], in data set [6] and in [7] was “Toxic” each time.

As to `CC(=O)NCCNC(=O)C(C)(C)NC(=O)c1cc2c(n(CC3CCCCC3)c1=O)CCCCCC2`, the Ki was determined as 4.7 nM in [1] and 2.5 nM in [2]. Also, the Activity entry in data set [3], in [4], in data set [5], in data set [6] and in data set [7] was “Toxic” throughout.
